Test results published in paper PMC11249646, “Small-Molecule Disruptors of the Interaction between Calcium- and Integrin-Binding Protein 1 and Integrin αIIbβ3 as Novel Antiplatelet Agents” (ACS Pharmacology & Translational Science, 2024).
In brackets after ≈: the same amount, converted by molar mass. Several values for one entry are separate records, joined by “and”; a condition that tells them apart may be missing. Identical values can stand only once. Like-named read-outs stand apart in the source and are kept apart here. Primed or numbered codes have the meaning given here. Where no end group is shown, it is not given here. FITC″ = fluorescein isothiocyanate label; FITC′ = not defined here

B1: FITC-labeled αIIb peptide from the cytoplasmic domain of integrin αIIb (peptide)
peptide: Ac-LVLAMWKVGFFKRNRK-{FITC′}
notes: integrin αIIb, stretch at the start of the cytoplasmic domain; last printed residue of the peptide; The C-terminal K probably carries the FITC (surmised); also called F-αIIb; F-αIIb peptide; source: synthetic peptide (custom synthesized, Peptide 2.0, purity 95.83%)
B2: GST-tagged recombinant CIB1 (calcium- and integrin-binding protein 1) (natural protein)
chain: SKELLAEYQDLTFLTKQEILLAHRRFCELLPQEQRSVESSLRAQVPFEQILSLPELKANPFKERICRVFSTSPAKDSLSFEDFLDLLSVFSDTATPDIKSHYAFRIFDFDDDGTLNREDLSRLVNCLTGEGEDTRLSASEMKQLIDNILEESDIDRDGTINLSEFQHVISRSPDFASSFKIVL
notes: Printed molecular weight of GST-CIB1 is 48 kDa against 26 kDa for GST alone, which would fit whole CIB1 (surmised); Vector family pGEX-4T is named for the empty vector; also called GST-CIB1; CIB1-GST

Experiments:
[1] = molecular target: T1, CIB1 and αIIb interaction (GST-CIB1 : F-αIIb peptide) (Homo sapiens, UniProt Q99828); assay: FP assay, 96-well format (assay development); type: binding; details: GST-CIB1 1 μM, F-αIIb peptide 100 nM, pre-incubated 1 h, read-out: half maximal inhibitory concentration (IC50)
T1 construct: made in house; host or cells: BL-21 plus RIL cells (E. coli)
T1 sequence (Q99828 1-191): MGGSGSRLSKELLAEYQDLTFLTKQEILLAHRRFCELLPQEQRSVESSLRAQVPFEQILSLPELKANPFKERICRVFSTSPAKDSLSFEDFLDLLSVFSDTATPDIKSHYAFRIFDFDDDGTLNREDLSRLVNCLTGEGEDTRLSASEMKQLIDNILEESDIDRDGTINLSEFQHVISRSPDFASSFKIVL

[2] = molecular target: T1, CIB1 and αIIb interaction (GST-CIB1 : F-αIIb peptide); assay: FP assay, 384-well format (screen); type: binding
[3] = molecular target: T2, CIB1 and αIIb interaction (CIB1-GST : F-αIIb peptide) (Homo sapiens, UniProt Q99828); assay: FP assay, 1536-well qHTS format (primary and confirmatory screen); type: binding; details: over the concentration range tested
T2 construct: made in house; host or cells: BL-21 plus RIL cells (E. coli)
T2 sequence (Q99828 1-191): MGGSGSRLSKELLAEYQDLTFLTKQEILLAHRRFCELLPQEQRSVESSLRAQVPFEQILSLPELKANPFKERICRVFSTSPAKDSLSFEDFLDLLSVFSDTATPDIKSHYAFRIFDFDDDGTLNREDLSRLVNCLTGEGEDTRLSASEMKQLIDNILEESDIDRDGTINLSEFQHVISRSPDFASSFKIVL

CIB1-(His)6 = molecular target: T3, CIB1-(His)6 (Homo sapiens, UniProt Q99828); assay: Microscale thermophoresis (MST) protein and small-molecule binding
T3 construct: made in house
T3 sequence (Q99828 1-191): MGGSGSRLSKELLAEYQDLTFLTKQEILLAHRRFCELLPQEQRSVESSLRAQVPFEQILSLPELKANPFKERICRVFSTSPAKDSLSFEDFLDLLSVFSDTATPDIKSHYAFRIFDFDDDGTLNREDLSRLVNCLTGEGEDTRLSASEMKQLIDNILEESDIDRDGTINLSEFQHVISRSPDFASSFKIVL
Protocol: Determining a direct measurement of a molecule’s binding interaction with its target is a vital parameter for characterizing a chemical probe. We employed microscale thermophoresis (MST) for this purpose, leveraging its sensitivity and capacity to deliver quantitative data on the binding interaction.[35] […] We began by testing increasing amounts of the compound(s) and incubating them with the fluorescently labeled CIB1-(His)6, followed by the detection of the MST traces on the NT automated instrument (for more details see Materials and Methods Section). […] We were able to rule out compound interference with the histidine tag on CIB1 and/or the fluorophore used for the MST assay by testing the compounds with a fluorescently labeled hexa-histidine peptide (Figure S8B).
The binding affinity of the compounds to the CIB1-(His)6 protein was evaluated using microscale thermophoresis (MST). The recombinant protein was labeled with a fluorophore using Monolith His-tag labeling RED-tris-NTA second Generation kit (Nanotemper Technologies, Munich, Germany) following the manufacturer’s protocol. Compounds were titrated in a 2-fold dilution series (16 points, final concentration range of 6.1 nM to 200 μM) and incubated with the same volume of 50 nM (final concentration; 25 nM RED-tris-NTA) labeled recombinant protein for 30 min at RT (20 μL final assay volume). […] The dissociation constant (Kd) values were calculated by fitting the thermophoresis signal at 20 s of the thermograph using the MO Affinity Analysis software (Nanotemper Technologies, Munich, Germany) and confirmed using GraphPad Prism.

[4] = molecular target: T4, CIB1-(His)6 : F-αIIb peptide (Homo sapiens, UniProt Q99828); assay: MST competitive binding study
T4 construct: made in house
T4 sequence (Q99828 1-191): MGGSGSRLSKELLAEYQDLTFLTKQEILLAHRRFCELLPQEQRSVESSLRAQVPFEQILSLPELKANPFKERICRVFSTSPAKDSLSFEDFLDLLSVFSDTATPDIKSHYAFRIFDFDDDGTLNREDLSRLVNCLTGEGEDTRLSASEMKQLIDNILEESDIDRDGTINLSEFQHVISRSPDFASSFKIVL
Protocol: We sought to resolve this discrepancy by performing a competition binding study similar to the conditions of the FP HTS assay by utilizing the F-αIIb probe.
Figure 4 MST competitive binding assay. We selected 200 nM F-αIIb and a CIB1 concentration of 4 μM and tested both compounds. […] Panel (B) highlights the concentration range in which we observe different activities between the two compounds.
The binding affinity of the compounds to the CIB1-(His)6 protein in the presence of αIIb peptide was evaluated using FITC-labeled αIIb as well. Following manufacturer’s recommendation,[66] we first determined a minimum concentration of F-αIIb by performing a titration of the fluorophore (1 μM, 1:2, 8-points; final concentration range of 7.8 nM to 1 μM) in a 10 μL assay volume. Solutions were placed in standard capillaries and evaluated for the fluorescent signal using the Monolith NT.115 instrument. […] CIB1-(His)6 protein was titrated in a 2-fold dilution series (16-points, final concentration range of 15 nM to 500 μM), at a final volume of 12.5 μL. An equal volume of [2×] […] Solutions were placed in standard capillaries, incubated for approximately 1 h, and evaluated for a fluorescent signal with 50% LED excitation power, 20, 40, or 60% MST power (low, medium, high, respectively), MST on-time of 30 s, and off-time of 5 s.
Compounds were titrated in a 2-fold dilution series (16 points, final concentration range of 6.1 nM to 200 μM) and mixed with an equal volume CIB1-(His)6 protein and F-αIIb peptide (final concentrations of 4 μM and 200 nM, respectively). Solutions were incubated for 1 h at RT, then placed in standard capillaries, and evaluated for fluorescent signal (in triplicate) at the following parameters: 50% LED excitation power, 40% MST power, MST on-time of 30 s, and off-time of 5 s using Monolith NT.115 instrument. Dissociation constant (Kd) values were calculated by fitting the thermophoresis signal at 20 s of the thermograph using the MO Affinity Analysis software (Nanotemper Technologies, Munich, Germany) and confirmed using Graphpad Prism 7.

washed human platelets = assay: Human platelet aggregation assay (thrombin-induced); type: cell-based; details: for inhibition at 10 µM: Homo sapiens, Platelet, single concentration of 10 μM (n = 3), thrombin; for Thrombin Assay 10 µM (%): platelet aggregation inhibition at 10 µM
Text: A classical challenge in target-based drug discovery is moving from biochemical to cellular assay and the essential step of determining if the compounds of interest can perform in a cellular context. After characterization of the compounds in a series of biochemical assay formats, our next step was to assess their activity in a cellular environment. Our previous studies have shown that the interaction of the cytoplasmic domain of integrin αIIbβ3, a key regulator of platelet aggregation, with CIB1, is involved in downstream signaling in platelet activation and aggregation. We sought to determine whether our candidate compounds were inhibiting this interaction by evaluating them for platelet function in a human platelet aggregation assay. We prepared platelet-rich plasma (PRP) and washed the platelets as previously described[44] and then performed a platelet aggregation assay using the washed platelet suspensions (2 × 10^8/platelets/mL) followed by the recording of aggregation traces (see Materials and Methods Section). To induce platelet aggregation, 0.03 U/mL of thrombin, a physiological agonist of platelet activation, was used.
Figure 6 Effect of compounds on human platelet activation. Representative platelet aggregation tracings of washed human platelet suspensions pretreated for 30 min at 37 °C with vehicle (DMSO) or compounds at indicated concentrations followed by activation with thrombin (0.03–0.1 U/mL). Panel (A): NCGC00071855. Panel (B–D): NCGC00351170. Panel (E): CD62P exposure was in the presence of NCGC00351170. Data represents mean ± SEM, n = 4 individual experiments; ns = non significant *P < 0.05, ***P < 0.001, ****P < 0.0001.
Whole blood was drawn by venipuncture from healthy adult volunteers (of both gender and race) with informed consent. Approval was obtained from the institutional review boards of Thomas Jefferson University, according to the Declaration of Helsinki. Blood was collected in acidified citrate dextrose as an anticoagulant. Platelet-rich plasma (PRP) and washed platelets were prepared, as previously described.[44] Platelet aggregation was performed using washed platelet suspensions containing 2 × 10^8 platelets/mL using a Chrono-Log Lumi-Aggregometer (Chrono-Log), as described previously.[11] Aggregation traces were recorded by using Aggrolink software (Chrono-Log). Thrombin-induced P-selectin (CD62P) exposure was performed using Accuri C6 flowcytometer (BD Bioscience) as described previously.[11]
Figure S9: Effect of compounds on human platelet activation. Representative platelet aggregation
tracings of washed human platelet suspensions treated with vehicle (DMSO) or indicated
compounds at 10 μM for 30 minutes at 37 °C followed by activation with thrombin (0.03U/mL).

[5] = In vitro ADME: solubility; type: physicochemical; details: read-out: Solubility
[6] = In vitro ADME: PAMPA permeability
[7] = In vitro ADME: RLM stability; details: rat liver microsomes; read-out: Rat Liver Microsome Stability (t1/2)
CIB1-(His)6 protein = molecular target: T5, CIB1-(His)6 protein (UniProt Q99828 9-191); assay: MST; 200 nM F-αIIb with CIB1-(His)6 titrated 15 nM to 500 μM (16 points); about 1 h; medium (40%) MST power, Monolith NT.115; details: both partners purified
T5 construct: source: purified using a Ni-NTA resin column
T5 sequence: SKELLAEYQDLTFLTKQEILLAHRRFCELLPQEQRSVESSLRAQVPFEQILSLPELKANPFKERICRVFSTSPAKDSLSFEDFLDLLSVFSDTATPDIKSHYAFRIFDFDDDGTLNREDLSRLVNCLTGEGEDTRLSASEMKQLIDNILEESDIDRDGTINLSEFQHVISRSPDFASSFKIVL

[8] = molecular target: B1; details: both partners purified
[9] = molecular target: T6, F-scrambled αIIb-peptide (FITC-labeled scrambled control peptide); details: both partners purified
T6 construct: scrambled order of the αIIb peptide's residues; also called labeled scrambled-peptide; scrambled peptide; source: synthetic peptide (custom synthesized, Peptide 2.0, purity 95.37%)
T6 peptide: Ac-RKLFVKVMFWRLNGAK-{FITC″}

[10] = molecular target: B2; assay: fluorescence polarisation; competition, 384-well plate; GST-CIB1 1 or 2 μM, F-αIIb 50 nM, unlabeled αIIb peptide 16-point 1:2 dilution (3.05 nM to 100 μM), points >25 μM excluded; room temperature, 1 h; details: both partners purified
[11] = molecular target: B2; details: both partners purified

Ac-LVLAMWKVGFFKRNRK [unlabeled αIIb peptide, reference compound]
IC50 [1]: 11.2 µM
IC50 ([2]; 384-well, F-αIIb 50 nM, GST-CIB1 1 or 2 μM, RT 1 h, read-out: IC50): ~2.7 µM and ~3 µM

O=C(c1ccc(-c2ccccc2)cc1)c1no[n+]([O-])c1C(=O)c1ccc(-c2ccccc2)cc1 [NCGC00351154-01]
activity in the qHTS assay [3]: inactive
Kd (CIB1-(His)6; MST, fluorescently labeled CIB1-(His)6 50 nM, read-out: equilibrium dissociation constant (Kd)): 6.7 µM
difference in binding affinity (CIB1-(His)6; NCGC00351154 vs NCGC00351170 Kd): 2.3 fold
EC50 ([4]; 200 nM F-αIIb, 4 μM CIB1-(His)6, n = 3/concentration): 29 µM
difference between the two compounds (EC50) ([4]; NCGC00351154 vs NCGC00351170): 13.8 fold
inhibition at 10 µM (washed human platelets): 16%
Thrombin Assay 10 µM (%) (washed human platelets): 16%
solubility [5]: 1 µg/mL (≈ 2.24 µM)
Papp [6]: < 3 ×10⁻⁶ cm/s

O=C(c1ccccc1C(F)(F)F)c1no[n+]([O-])c1C(=O)c1ccccc1C(F)(F)F [NCGC00351167-01]
IC50 ([2]; 384-well FP assay, Table 1, read-out: FP assay IC50): 6.68 µM
inhibition at 10 µM (washed human platelets): 84%
Thrombin Assay 10 µM (%) (washed human platelets): 84%
solubility [5]: < 1 µg/mL
Papp [6]: < 12.4 ×10⁻⁶ cm/s
half-life [7]: 2.34 min

B1
Kd (CIB1-(His)6 protein): 2.6 µM

B2
EC50 [8]: ~0.2 µM
EC50 [9]: 1.6 µM

B3: unlabeled αIIb peptide (peptide)
peptide: Ac-LVLAMWKVGFFKRNRK
notes: integrin αIIb, stretch at the start of the cytoplasmic domain; last printed residue of the peptide; also called unlabeled peptide; source: synthetic peptide (custom synthesized, Peptide 2.0, purity >95.00%)
IC50 [10]: ~2.7 µM
IC50 [11]: ~12 µM and 8.6 µM
